Source: US4119710A, “Bronchospasmolytic 1-(p-amino-phenyl)-2-amino-ethanols-(1) and salts” (Boehringer Ingelheim GmbH, priority 1972, dated 1978)

Legend:
β2 -receptors = molecular target: T1, β2 -receptors (Cavia porcellus, UniProt Q8K4Z4); test: β2-blocking activity: antagonism to broncholytic activity of N-isopropyl-noradrenalin sulfate in anesthetized guinea pigs (Konzett-Rossler); type: in vivo; conditions: guinea pig, iv, d(+)-isomers, 5 γ/kg i.v. N-isopropyl-noradrenalin sulfate after 20 γ/kg i.v. acetylcholine (Table III), read-out: Blocking Action on β2 -receptors ED50
T1 construct: tested on anesthetized guinea pigs; from tissue; host or cells: living anesthetized guinea pig, airways (Konzett-Rossler)
T1 sequence (Q8K4Z4 whole entry): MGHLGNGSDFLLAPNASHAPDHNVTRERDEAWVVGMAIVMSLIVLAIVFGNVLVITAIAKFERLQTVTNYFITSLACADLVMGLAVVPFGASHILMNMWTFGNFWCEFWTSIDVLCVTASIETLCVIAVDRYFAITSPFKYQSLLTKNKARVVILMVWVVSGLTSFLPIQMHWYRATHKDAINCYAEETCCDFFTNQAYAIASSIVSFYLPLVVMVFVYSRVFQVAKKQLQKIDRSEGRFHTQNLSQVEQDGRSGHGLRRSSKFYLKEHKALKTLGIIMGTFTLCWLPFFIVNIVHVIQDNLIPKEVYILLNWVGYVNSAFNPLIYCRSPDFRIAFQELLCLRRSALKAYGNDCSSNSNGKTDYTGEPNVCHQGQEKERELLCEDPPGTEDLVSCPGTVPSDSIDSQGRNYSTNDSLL
Description: (§1) The compounds of this invention were tested for toxicity and with regard to their action on the β-receptors in warm-blooded animals, such as cats and guinea pigs, by the methods described below, and the following test results were obtained for representative species of the genus, where
The β2 -blocking activity was tested on anesthetized guinea pigs as antagonism to the broncholytic activity which is observed upon administration of 5 γ/kg body weight i.v. of N-isopropyl-noradrenalin sulfate in the test arrangement according to Konzett-Rossler, following the inducement of a bronchospasm caused by a standard dose of 20 γ/kg body weight i.v. of acetylcholine (see Table III).

β1 -receptors = molecular target: T2, β1 -receptors (Felis catus, UniProt Q9TST6); test: β1-blocking activity: antagonism to tachycardia provoked by N-isopropyl-noradrenalin sulfate in anesthetized cats; type: in vivo; conditions: cat, iv, d(+)-isomers, tachycardia by 1.0 γ/kg i.v. N-isopropyl-noradrenalin sulfate (Table III), read-out: Blocking Action on β1 -receptors ED50
T2 construct: tested on anesthetized cats; from tissue; host or cells: living anesthetized cat, heart (heart rate)
T2 sequence (Q9TST6 whole entry): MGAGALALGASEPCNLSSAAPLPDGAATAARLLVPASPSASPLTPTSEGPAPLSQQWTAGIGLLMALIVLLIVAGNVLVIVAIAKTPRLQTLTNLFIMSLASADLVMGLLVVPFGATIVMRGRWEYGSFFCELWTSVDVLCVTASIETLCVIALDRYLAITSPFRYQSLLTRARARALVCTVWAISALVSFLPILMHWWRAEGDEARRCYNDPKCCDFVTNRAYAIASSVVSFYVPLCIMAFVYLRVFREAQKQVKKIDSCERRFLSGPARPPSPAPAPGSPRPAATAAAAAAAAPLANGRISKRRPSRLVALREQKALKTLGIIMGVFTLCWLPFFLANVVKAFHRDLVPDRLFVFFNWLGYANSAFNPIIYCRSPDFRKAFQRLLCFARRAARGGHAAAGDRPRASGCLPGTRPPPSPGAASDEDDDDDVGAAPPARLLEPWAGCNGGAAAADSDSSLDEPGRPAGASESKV
Description: as §1
The β1 -blocking activity was tested on anesthetized cats as antagonism to tachycardia provoked by a standard dose of 1.0 γ/kg i.v. of N-isopropyl-noradrenalin sulfate. From the average percentage reduction in heart rate acceleration caused by N-isopropyl-noradrenalin sulfate, obtained by various doses of the test compound in question, a median effective dose (ED50) was determined by graphic extrapolation (see Tables II and III).

[1] = acute toxicity in mice (LD50, Litchfield and Wilcoxon); conditions: mouse, in vivo, iv, groups of 10, i.v., deaths within 14 days, d(+)-isomers (Table III), read-out: acute toxicity LD50 (Table III)
Description: as §1
The acute toxicity of the compounds was determined on groups of 10 mice.

In the case of CC(C)(C)NCC(O)c1cc(Cl)c(N)c(C(F)(F)F)c1 (single isomer, unassigned) [G-d(+), d-1-(4'-Amino-3'-chloro-5'-trifluoromethyl-phenyl)-2-tert.butylamino-ethanol], the ED50 (β2 -receptors) is reported as greater than 2 mg/kg, the ED50 (β1 -receptors) is reported as 0.0125 mg/kg and the LD50 at 336 h [1] is reported as 33.2 mg/kg.
